The test system of test [1] is L. major spt2^− promastigotes. Put plainly: Composition of free sterols by GC/MS, spt2^− promastigotes. The format is cell-based, Leishmania major. As to conditions: 48 hours. As to the method:
(§1) Log phase L. major LV39 WT and spt2^− promastigotes were grown in the presence or absence of ITZ or CLT. Culture densities were determined 48 hours later and total lipids were extracted and the composition of free sterols was determined by GC/MS as described in Materials and Methods. ND: not detectable. Each experiment was repeated at least 3 times and results from one representative set were shown.
(§2) Here WT and spt2^− parasites were grown in various concentrations of ITZ (0.001 nM to 1 μM) or CLT (10 nM to 5 μM). Effects of ITZ and CLT on growth, sterol composition and DRM were analyzed after 48 hours. Basically, culture densities were determined using a particle counter and drugs' effects on growth were assessed in comparison to control cells (no drug); sterol lipids were extracted and analyzed by GC/MS and the percentage of 14-methylfecosterol (among all detectable sterol lipids) was used to reflect changes in sterol composition (see Table 2). DRMs were also isolated and the percentage of GP63 that were insoluble at 4° C. was used as an indicator for the integrity of DRM (see FIG. 2). Two to four independent experiments were performed and the averaged results were plotted in FIG. 3.
(§3) Total lipids were extracted using the Folch's method [Folch, et al., 1957]. Briefly, promastigotes were harvested by centrifugation and washed once with PBS. Pellets were resuspended in chloroform:methanol (2:1) at 1.0×10^8 cells/ml with the addition of cholesta-3,5-diene (Sigma-Aldrich, FW 368.7) at 0.5 mg/10^8 cells (6.6×10^7/cell). After vortexing for 30 s, cell debris was removed by centrifugation (1000 g for 10 min) and samples were washed with 0.2 volume of 0.9% NaCl. After centrifugation, supernatants were removed and the organic phase solutions were dried under a stream of nitrogen. Samples were then dissolved in chloroform:methanol (1:2) at 1.0×10^9 cells/ml.
(§4) Electron impact gas chromatography/mass spectrometry (GC/MS) analyses of sterol lipids were performed on a Finnigan (San Jose, Calif.) SSQ-7000 single-stage quadrupole mass spectrometer with a Varian (Walnut Creek, Calif.) 3400 GC, which is controlled by Finnigan ICIS software operated on a DEC alpha station. The extracts in solution […] were injected in a splitless mode and analyzed by GC on a Restek (Bellefonte, Pa.) RTX-5 column (15 m, 0.33 mm id, […]). The initial temperature of GC was set at 80° C. for 1 min, increased to 220° C. at a rate of 50° C./min, and then raised to a final temperature of 280° C. at a rate of 10° C./min. The temperatures of the injector, transfer line of the GC column, and of the ion-source were set at 280° C., 280° C., and 240° C., respectively. The full scan mass spectra (50 to 500 Dalton) were acquired at a rate of 1 scan/0.25 Sec.

Test [2] has as its system L. major LV39 WT promastigotes. Nature of the test: Detergent resistant membrane fractions (insoluble GP63), WT promastigotes. The format is cell-based, Leishmania major. The procedure: (§5) Detergent resistant membrane fractions (DRMs) were prepared using Triton X-100 from L. major promastigotes as previously described [Zhang, et al., 2003. Such DRMs are usually enriched for raft-associated materials and have been used to characterize rafts [London, et al., 2000; Brown, et al., 1998]. A typical marker for a raft in Leishmania parasites is GP63, a GPI-anchored metalloprotease, which can be detected from DRM samples by western-blot [Zhang, et al., 2003].
(§6) Here WT and spt2^− parasites were grown in various concentrations of ITZ (0.001 nM to 1 μM) or CLT (10 nM to 5 μM). Effects of ITZ and CLT on growth, sterol composition and DRM were analyzed after 48 hours. Basically, culture densities were determined using a particle counter and drugs' effects on growth were assessed in comparison to control cells (no drug); sterol lipids were extracted and analyzed by GC/MS and the percentage of 14-methylfecosterol (among all detectable sterol lipids) was used to reflect changes in sterol composition (see Table 2). […]
(§7) Detergent resistant membrane fractions (DRMs) were isolated and a western blot with a monoclonal antibody again Leishmania GP63 #235 was performed as previously described [Zhang, et al., 2003]. Percentages of GP63 in soluble and insoluble fraction after extractions at 4° C. were determined using a Fuji FLA5000 phosphoimager.

Test [3] relates to L. major spt2^− promastigotes. Nature of the test: Detergent resistant membrane fractions (insoluble GP63), spt2^− promastigotes. Type of test: cell-based, Leishmania major. As to the method: as §5, §6, §7
Test [4] relates to L. major spt2^− promastigotes. Nature of the test: microbe, parasite or virus in culture. The format is cell-based, Leishmania major. The following applies: for EC50: Leishmania major, 48 h, read-out: EC50 in spt2^−; for EC50 (WT)/EC50 (spt2^−): ratio. As to the method:
(§8) Log phase L. major LV39 WT and spt2 promastigotes were inoculated at 1.0×10^5 cells/ml and culture densities were determined 48 hours later.
(§9) Wild type (WT) L. major LV39 clone 5 (Rho/SU/59/P), FV1 (MOHM/IL/80/Friedlin virulent clone 1), spt2^− (Δspt2::HYG/Dspt2::PAC), ads1^− (Δads1::HYG/Dads1::SAT), and spt2^−/+SPT2 (Δspt2::HYG/Dspt2::PAC/+pXG-SPT2) cells were grown in M199 with 10% FBS and supplements as described [Zhang, et al., 2003; Kapler, et al., 1990]. For growth inhibition assays, promastigotes were inoculated at 1.0×10^5 cells/ml (in T25 flasks, 5 ml of medium per flask) in various concentrations of drugs. All cultures contained equivalent amount of DMSO or methanol (0.1% or less, from drug stocks). After 48 or 96 (for ads1^− only) hours, culture densities were determined using a Coulter counter (Z1, Beckman) and effects of drugs on growth were assessed in relative to cultures grown in the absence of drugs.

Test [5] has as its system L. major LV39 WT promastigotes. Nature of the test: Composition of free sterols by GC/MS, WT promastigotes. The format is cell-based, Leishmania major. The following applies: 48 hours. As to the method:
as §1, §2, §3, §4

Test [6] deals with L. major LV39 WT promastigotes. Nature of the test: microbe, parasite or virus in culture. The format is cell-based, Leishmania major. The following applies: for EC50: Leishmania major. The procedure: as §8, §9
A classical isobologram was constructed by plotting EC50s of drugs either alone or in combination.

The test system of test [7] is L. major ads1^− promastigotes. Nature of the test: Growth inhibition assay, EPL-null ads1^− mutant versus FV1 WT. Type of test: cell-based, Leishmania major. As to conditions: 96 hours for ads1^−. The procedure: as §9
The test system of test [8] is Leishmania amastigotes growing in murine macrophages. Put plainly: Amastigotes growing in murine macrophages. Type of test: cell-based. The following applies: preliminary results, data not shown.
In test [9] the test system is L. major spt2^− promastigotes. Nature of the test: Flagellar localization of FcaBP-HA (immunofluorescence), spt2^− promastigotes. The format is cell-based, Leishmania major. As to conditions: concentration 5˜10 times of EC50 for 20 hours, data not shown.
The mark [10] stands for this setting: 48 h, LV39 WT promastigotes, 48 hours, read-out: EC50 in WT.

Entries after “also recorded” stand apart in the source; their conditions may differ. Where two headings read alike, the source gives them in different places.

The term EC50 denotes the concentration needed to bring the measured effect to its halfway point.

Regarding `CCC(C)n1ncn(-c2ccc(N3CCN(c4ccc(OCC5COC(Cn6cncn6)(c6ccc(Cl)cc6Cl)O5)cc4)CC3)cc2)c1=O` (centres unmarked) [Itraconazole], the “5-dehydroepisterol (%)” value was 3.7% in test [1] (spt2^− + 1 nM ITZ), 2.1% in [1] (spt2^− + 5 nM ITZ), 9.6% in [5] (WT + 1 nM ITZ) and 1.7% in [5] (WT + 5 nM ITZ). Also, the “14-methylfecosterol (%)” value in test [1] (spt2^− + 1 nM ITZ) is given as 59.4%; in [1] (spt2^− + 5 nM ITZ), 75.2%; in [5] (WT + 1 nM ITZ) it was 62.3%; in test [5] (WT + 5 nM ITZ) it was 92.2%. Also, the “Cholesterol (%)” value is reported as 22.0% in test [1] (spt2^− + 1 nM ITZ), 17.1% in [1] (spt2^− + 5 nM ITZ), 2.9% in test [5] (WT + 1 nM ITZ) and 3.2% in test [5] (WT + 5 nM ITZ). Moreover, the results for the “Episterol (%)” value in test [1] (spt2^− + 1 nM ITZ), in test [1] (spt2^− + 5 nM ITZ) and in test [5] (WT + 1 nM ITZ) were 1.6%, 0.4% and 0.9%, respectively. Further, the “Ergosterol (%)” value in [1] (spt2^− + 1 nM ITZ) is listed as 13.2%; in [1] (spt2^− + 5 nM ITZ), 4.0%; in [5] (WT + 1 nM ITZ) it was 24.3%; in [5] (WT + 5 nM ITZ) it was 2.9%. Further, the “Lanosterol (%)” value in [1] (spt2^− + 1 nM ITZ) turned out to be 0.1%; in [1] (spt2^− + 5 nM ITZ) it was 1.2%. Also, the Total sterols/cell in test [1] (spt2^− + 1 nM ITZ) was 4.0 × 10^8 /cell; in test [1] (spt2^− + 5 nM ITZ), 4.4 × 10^8 /cell; in test [5] (WT + 1 nM ITZ) it was 2.0 × 10^8 /cell; in [5] (WT + 5 nM ITZ) it was 3.3 × 10^8 /cell. The endogenous sterols in [1] (spt2^−, 1˜10 nM ITZ) is recorded as 4˜6%; in [5] (WT, 1˜10 nM ITZ), 4˜6%. In addition, in test [2] (WT parasites), the “ITZ concentration significantly inhibiting growth and DRM stability in WT” value is listed as “more than 100 nM”. The “GP63 in DRM” value is on record as 40˜55% in test [2] (WT, 1˜10 nM ITZ, 4° C., 50˜55% in control cells) and 24˜28% in test [3] (spt2^−, 1˜10 nM ITZ, 4° C., 45˜50% in control cells). In addition, the “ITZ concentration causing significant reduction of insoluble GP63 at 4° C.” value in [3] (spt2^− parasites) is “higher than 1 nM”. Moreover, the EC50 was 0.0039 µM in test [4]; ~1.1 µM in test [6] (setting [10]); ~0.0046 µM in test [6] (LV39 WT grown in the presence of 10 μM MYR, read-out: EC50 for ITZ in WT + 10 μM myriocin); 0.00092 µM in test [6] (read-out: EC50 of ITZ in combination with 25 μM MYR); 0.131 µM in test [6] (read-out: EC50 of ITZ in combination with […] MYR). Also, the “EC50 (WT)/EC50 (spt2^−)” value in test [4] is recorded as 282. Further, the “Growth (%)” value in test [4] (spt2^− + 1 nM ITZ, 48 hours) is reported as 64.6%; in test [4] (spt2^− + 5 nM ITZ, 48 hours) it was 29.4%; in [6] (WT + 1 nM ITZ, 48 hours), 91.5%; in [6] (WT + 5 nM ITZ, 48 hours), 81.6%. In [4] (spt2^−, 1˜10 nM ITZ, 48 hours), the “proliferation, % of control” value is reported as 28˜67%. Also, the “14-methylfecosterol among all sterols” value in test [5] (WT, 1˜10 nM ITZ) is recorded as 80˜92%. Besides, the “growth, % of control” value in [6] (WT, 1˜10 nM ITZ, 48 hours) was 75˜95%.
In the case of `CCCCCCC(=O)CCCCCC/C=C/C[C@@H](O)[C@H](O)[C@@](N)(CO)C(=O)O` [MYR, myriocin], the “Sensitivity of ads1^− mutant in comparison to FV1 WT” value in test [7] is “hypersensitive”. Further, the EC50 in test [6] (setting [10]) is ~55 µM; in [6] (LV39 WT, 750 nM ITZ, read-out: EC50 of MYR in combination with 750 nM ITZ), 1.5 µM; in test [6] (read-out: EC50 for MYR in the presence of 0.5 μM ITZ, LV39 WT, 500 nM ITZ), ~1.8 µM; in test [6] (read-out: EC50 of MYR in combination with 250 nM ITZ, LV39 WT, 250 nM ITZ) it was 2.2 µM. In addition, the “Effect of MYR on the efficacy of ITZ on amastigotes” value in test [8] is given as “does not improve the efficacy of ITZ”.
On to `CN(C/C=C/C#CC(C)(C)C)Cc1cccc2ccccc12` [Terbinafine], for which the “Sensitivity of ads1^− mutant in comparison to FV1 WT” value in test [7] is reported as “very similar EC50s; also recorded: little or no selectivity”. The figures for the EC50 in [4] and in test [6] (setting [10]) were 3.3 µM and 4.3 µM, respectively. In test [4], the “EC50 (WT)/EC50 (spt2^−)” value stood at 1.3. In addition, in test [4] (spt2^− versus LV39 WT), the “Selectivity against spt2^− parasites (in words)” value is “did not cause the extreme hypersensitivity”. For the same compound, the “Mislocalization of FcaBP-HA” value in test [9] is listed as “did not show such defect”.

(Values after patent US20080119483A1, “COMPOSITIONS AND METHODS FOR INHIBITING PROTOZOAN GROWTH” (priority 2006, published 2008).)
